Experiments:
plasma cytokines [1] = experiment: Plasma cytokine levels (multiplex and single ELISA kits), 2nd experiment; assay type: in vivo, athymic nude mice; settings: for IL-5: limit of detection 3.0; for IL-6: limit of detection 3.9; for IL-1β: limit of detection 4.1; for IL-10: limit of detection 24.6
Procedure: Cytokine levels in EDTA plasma from the mice in the 2nd experiment were measured at the UCSD Core Laboratory (San Diego, Calif.) using a multiplex assay kit for IL-1β, IL-2, IL-4, IL-5, IL-10, IL-12, IFN-γ, TNF-α and single ELISA kits for IL-6 and TGF-β1 by R&D Systems. […] For both the 1st and 2nd experiments, those measured cytokine values falling below the limits of detection were set to the higher assay limit for the purposes of the subsequent statistical analyses, and recorded as n.d. (not detectable) in Tables 1 through 3.

[2] = tested on: MDA-MB-231 human breast tumor xenographs; experiment: Antitumor efficacy in nude mice with MDA-MB-231 xenographs, 2nd experiment; assay type: in vivo, athymic nude mice; settings: (1:2) 25, DCP 23 and 69, calcium chloride dihydrate 4.2 mg/kg/day
Procedure: In the 2nd experiment, twenty-nine athymic nude, also purchased from Harlan Sprague Dawley, Inc. (Indianapolis, Ind.), were each injected subcutaneously with 10×10^6 MDA-MB-231 cancer cells into the right flank. When tumors reached 3-5 mm in size, the mice were divided into five treatment groups of five each and a control group of four mice. […] All the other mice in the 2nd experiment persisted ≧43 days without complications. Experimental groups were treated by oral gavage once daily with the indicated test suspensions or solutions.

plasma cytokines [3] = experiment: Plasma cytokine levels by ELISA (LINCOplex), 1st experiment; assay type: in vivo, athymic nude (nu/nu) mice; settings: Table 4, 21 mg/kg/d
Procedure: Cytokine levels in EDTA plasma from the mice in the 1st experiment were determined by ELISA assay at Alta Analytical Laboratories (San Diego, Calif.) using a LINCOplex Kit (Linco Research). Tryptophan (Trp) and kynurenine (Kyn) concentrations were measured from EDTA plasma samples by high pressure liquid chromatography (HPLC) using 3-nitro-L-tyrosine as the internal standard (Widner et al., 1997). To estimate IDO activity, the kynurenine to tryptophan ratio (Kyn/Trp) was calculated and expressed as μmol kynurenine/mmol tryptophan (Wirleitner, 2003). The values from five mice in the 1st experiment are not included in the summary statistics given in Table 1 for the following reasons. One mouse from each of the four treatment groups was used to test the effects of mega dosing, i.e., with (1:4 mol:mol) calcium pterin at 100 mg/kg/day after Day 60 of treatment, and are excluded. Also excluded was one mouse from the (1:4 mol:mol) calcium pterin (7 mg/kg/day) group which expired suddenly a few days before blood was collected. Cytokine measurements <3.2 pg/ml are reported as n.d. (not detectable) because the standard curves used in the ELISA assays were not calibrated below that level.
Cytokine levels in EDTA plasma from the mice in the 1st experiment were determined by ELISA assay at Alta Analytical Laboratories (San Diego, Calif.) using a LINCOplex Kit (Linco Research).
Cytokine levels in EDTA plasma from the mice in the 2nd experiment were measured at the UCSD Core Laboratory (San Diego, Calif.) using a multiplex assay kit for IL-1β, IL-2, IL-4, IL-5, IL-10, IL-12, IFN-γ, TNF-α and single ELISA kits for IL-6 and TGF-β1 by R&D Systems. EDTA plasma samples from two of the three ungavaged controls were lost due to handling error. For both the 1st and 2nd experiments, those measured cytokine values falling below the limits of detection were set to the higher assay limit for the purposes of the subsequent statistical analyses, and recorded as n.d. (not detectable) in Tables 1 through 3.

[4] = tested on: MDA-MB-231 human breast tumor xenographs; experiment: Antitumor efficacy in nude mice with MDA-MB-231 xenographs, 1st experiment; assay type: in vivo, athymic nude (nu/nu) mice; settings: 21 mg/kg/day
Procedure: The aims of the 1st experiment were to determine a dose-response curve for the (1:4 mol:mol) calcium pterin suspension, to compare the antitumor activity of this suspension to pterin alone (pterin control), and to test the effect of CaPterin mega-dosing at 100 mg/kg/day. Antitumor efficacy was evaluated in nude mice with MDA-MB-231 human tumor xenographs by Perry Scientific (San Diego, Calif.). In the 1st experiment, twenty-three athymic nude (nu/nu) female mice, ages 3-4 weeks, were purchased from Harlan Sprague Dawley, Inc. (Indianapolis, Ind.). 5×10^6 MDA-MB-231 cancer cells were injected subcutaneously into the right flank of each mouse. When tumors reached 3-5 mm in size, twenty mice were divided into four treatment/control groups of five mice each. The four treatment groups were: (1:4 mol:mol) calcium pterin (7 mg/kg/day); pterin (21 mg/kg/day); (1:4 mol:mol) calcium pterin (21 mg/kg/day); and sterile water control. Two mice with outlying tumor sizes or non-tumor takes were excluded shortly after treatment began: one from the pterin group and one from the control group. […] Only one outlier persisted >4 days, for 14 days. Also excluded from the metabolic analysis in the 1st experiment was one mouse from each of the four experimental groups mega-dosed by oral gavage with 100 mg/kg/day CaPterin for tip to 31 days to test for toxicity. All the other mice in the 1st experiment persisted ≧60 days without complications.
The control mice in the 1st experiment were treated with sterile water while the control mice in the 2nd experiment were untreated to evaluate the effect of mouse handling and gavaging upon tumor growth. Daily dosing was for 7 days per week. Animals were restrained but not anesthetized for oral dosing. Tumors were measured twice weekly with calipers and body weights taken twice weekly on the day of tumor measurements. Blood was collected from all animals via cardiac puncture at termination (after 70 to 98 days of treatment) and processed to EDTA plasma for analysis. Tumor size measurements for the control group in the 2nd experiment on days 4 and 7 were missed due to a technical oversight.
The MDA-MB-231 human breast tumor cell lines were supplied by SRI International (Menlo Park, Calif.) and propagated using standard in vitro cell expansion methods. Briefly, cells were grown in L-15 media from Gibco (Cat. No. 11415-064) supplemented with 2 mM L-Glutamine and 10% Fetal Bovine Serum (FBS). The cells were cultured in an incubator with 5% CO2, 37.5° C., and 80% humidity. Cells were harvested with 0.25% (w/v) Trypsin-0.03% (w/v) EDTA solution. Cells were prepared for injection by standard methods to appropriate concentrations. Animals were temporarily restrained but not anesthetized for the inoculation of the tumor cells. Animals were subcutaneously injected with the tumor cells in a 100-200 μl volume.
Each animal was individually tracked for tumor growth by external caliper measurements of protruding tumor. Primary tumor sizes were measured using calipers and an approximate tumor volume calculated using the formula 1/2 (a×b^2), where b was the smaller of two perpendicular diameters.
For each group, the mean and standard error of the mean (SEM) of the ratio V/Vo, Relative Tumor Volume (RTV), were plotted as a function of treatment time after inoculation. V0 was the tumor volume at Day 0, when treatment began.

[5] = tested on: MDA-MB-231 xenograph tumors; experiment: Combined analysis of DCP + control mice: Day 42,43 relative tumor volume and DCP/APCP; assay type: in vivo, nude mice; settings: 25 mg/(kg day); Day 42,43 relative tumor volume; combined data
Procedure: Standard ANOVA models for group effects, curve fitting, and stepwise regression analyses were carried out using SPSS Graduate Pack 15.0 for Windows (2006), with p<0.05 used to determine significance.
Table 7 gives the plasma cytokine and relative tumor volume Spearman rank order correlations for the 12 DCP+ control mice (Control [n=3; from 1st experiment]; 23 mg/(kg d) DCP [n=5; from 2nd experiment]; and 69 mg/(kg d) DCP [n=4; from 2nd experiment]).
To further determine significant causal and correlational linkages among DCP dosage, plasma cytokine changes, and relative tumor volume, the following curve fitting analyses were carried out with the 12 DCP+ control mice. First, plotting DCP versus Day 42,43 Relative Tumor Volume yielded a significant quadratic relationship (FIG. 11). Second, curve fitting each cytokine versus Day 42,43 Relative Tumor Volume found no significant linear relationship and only one significant quadratic relationship, i.e., with IL-12 (p=0.004; FIG. 12). Third, plotting DCP versus IL-12 yielded a weakly significant quadratic relationship (p=0.048; FIG. 13).
Substantially more significant analogous plots were generated by first carrying out the Table 8 stepwise regression analysis which derived the DCP antitumor plasma cytokine pattern (DCP/APCP), shown to be a more significant cytokine composite measure than IL-12 taken alone. The Table 8 stepwise regression analysis of the cytokine data from the 12 DCP+ control mice allowed for the calculation of DCP/APCP scores for each mouse. These DCP/APCP scores are plotted versus DCP dosage in […], which illustrates the significant quadratic dose-response relationships of DCP versus the derived plasma DCP/APCP composite measure. From this figure the estimated optimum dosage of DCP for maximum tumor growth inhibition is 42 mg/(kg day), while the estimated optimum dosage for maximum DCP/APCP induction is 44 mg/(kg day).

[6] = 2nd experiment, CaCl2 group, 4.2 mg/kg/day
[7] = 2nd experiment, CaCl2 group, 4.2 mg/kg/day, limit of detection 3.2
[8] = 2nd experiment, 25 mg/kg/d, limit of detection 3.2

For `O.O.[Ca+2].[Cl-].[Cl-]` [CaCl2•2H2O, calcium chloride dihydrate, reference compound], the “plasma IL-12 versus control (FIG. 10)” value (plasma cytokines [1]; 4.2 mg/(kg day)) was “significantly elevated”, the IL-5 (plasma cytokines [1]; [6]) was 10.3 ± 2.4 pg/mL and the IFN-γ (plasma cytokines [1]; [7]) was 9.7 ± 3.3 pg/mL. For the same molecule, the IL-4 (plasma cytokines [1]; [7]) was 3.6 ± .3 pg/mL, the IL-12 (plasma cytokines [1]; [7]) was 904.9 ± 156.9 pg/mL and the IL-6 (plasma cytokines [1]; [6]) was 44.4 ± 15.4 pg/mL. The IL-1β (plasma cytokines [1]; [6]) was 6.4 ± .9 pg/mL, the IL-2 (plasma cytokines [1]; 2nd experiment, CaCl2 group, 4.2 mg/kg/day, limit of detection 12.6) was 12.7 ± .13 pg/mL and the IL-10 (plasma cytokines [1]; [6]) was 26.5 ± 1.9 pg/mL. The TGF-β1 (plasma cytokines [1]; 2nd experiment, CaCl2 group, 4.2 mg/kg/day, limit of detection 31.2) was 74.3 ± 35.0 pg/mL and the “MDA-MB-231 xenograph growth inhibition” value [2] was “significantly inhibit”.

In the case of `Nc1nc2nccnc2c(=O)[nH]1` [Pterin, 2-amino-4(3H)-pteridinone], the IL-12 (plasma cytokines [3]; limit of detection 3.2) is reported as 48.5 ± 45.3 pg/mL, the TNF-α (plasma cytokines [3]; limit of detection 3.2) is reported as 9.0 ± 3.7 pg/mL and the IL-1β (plasma cytokines [3]; limit of detection 4.1) is reported as 64.6 ± 60.4 pg/mL. The IL-6 (plasma cytokines [3]; plasma at sacrifice, limit of detection 3.9) was 87.4 ± 11.0 pg/mL and the “antitumor activity (tumor growth vs control)” value [4] was “no antitumor activity”.

(1:2 mol:mol) calcium pterin was tested, and the IL-5 (plasma cytokines [1]; 2nd experiment, 25 mg/kg/d) was 4.4 ± .9 pg/mL, the IFN-γ (plasma cytokines [1]; [8]) was 16.1 ± 12.9 pg/mL and the IL-12 (plasma cytokines [1]; [8]) was 315.2 ± 71.0 pg/mL. For the same molecule, the IL-6 (plasma cytokines [1]; 2nd experiment, 25 mg/kg/d) was 31.6 ± 9.2 pg/mL, the IL-1β (plasma cytokines [1]; 2nd experiment, 25 mg/kg/d) was 4.9 ± .5 pg/mL and the IL-10 (plasma cytokines [1]; 2nd experiment, 25 mg/kg/d) was 30.2 ± 5.6 pg/mL. For the same molecule, the “increases in plasma IL-12 (FIG. 10)” value (plasma cytokines [1]; at the dosages tested) was “lower, non-significant increases”, the “MDA-MB-231 xenograph growth inhibition” value [2] was “significantly inhibit” and the “tumor growth inhibition relative to controls (FIG. 9)” value [5] was “significant tumor growth inhibition”.
